Measurements taken from ChEMBL document CHEMBL4419178, “Yap1 inhibitors that target the interaction of yap1 with oct4” (2018).
The source made the active and inactive calls. The rule behind the calls is not given here.

What was measured:
[1] = molecular target: Transcriptional coactivator YAP1 (Homo sapiens) (UniProt P46937); experiment: Inhibition of YAP1 (unknown origin) assessed as disruption in YAP1/OCT4 interaction at 10 uM by ELISA relative to control
[2] = system: A549; experiment: Cytotoxicity in human A549 cells assessed as reduction in cell viability at 1 to 20 uM incubated for 72 hrs by MTT assay; type: functional, cell-based
[3] = system: NCI-H1650; experiment: Cytotoxicity in human NCI-H1650 cells assessed as reduction in cell viability at 20 to 50 uM incubated for 24 hrs followed by medium replacement with RPMI medium with 10% FCS for 48 hrs by MTT assay; type: functional, cell-based
[4] = system: NCI-H2170; experiment: Cytotoxicity in human NCI-H2170 cells assessed as reduction in cell viability at 5 to 50 uM incubated for 96 hrs by MTT assay; type: functional, cell-based
[5] = system: NCI-H1650; experiment: Cytotoxicity in human NCI-H1650 cells assessed as reduction in cell viability at 1 to 20 uM incubated for 72 hrs by MTT assay; type: functional, cell-based
[6] = system: NCI-H1650; experiment: Cytotoxicity in human NCI-H1650 cells assessed as induction of cell killing in presence of cancer associated fibroblasts at 20 to 50 uM incubated for 24 to 48 hrs by cytotracker-red/green dye staining based immunofluorescence microscopy; type: functional
[7] = system: NCI-H1650; experiment: Inhibition of self-renewal capacity in stem-like side-population cells of human NCI-H1650 cells assessed as reduction in number of spheres at 5 to 50 uM incubated for 10 days by sphere formation assay; type: functional, cell-based
[8] = system: NCI-H2286; experiment: Cytotoxicity in human NCI-H2286 cells assessed as reduction in cell viability at 5 to 50 uM incubated for 96 hrs by MTT assay; type: functional, cell-based
[9] = system: NCI-H1650; experiment: Cytotoxicity in human NCI-H1650 cells assessed as reduction in cell viability at 20 to 50 uM incubated for 72 hrs by MTT assay; type: functional, cell-based
[10] = Cytotoxicity in human cancer associated fibroblasts at 20 to 50 uM incubated for 24 to 48 hrs by cytotracker-red/green dye staining based immunofluorescence microscopy
[11] = molecular target: Transcriptional coactivator YAP1 (Homo sapiens) (UniProt P46937); experiment: Inhibition of YAP1 (unknown origin) assessed as disruption in YAP1/OCT4 interaction at 50 uM by cell based assay
[12] = molecular target: Transcriptional coactivator YAP1 (Homo sapiens) (UniProt P46937); experiment: Inhibition of YAP1 in human NCI-H1650 cells assessed as disruption in YAP1/OCT4 interaction at 20 to 50 uM incubated for 48 hrs by proximity ligation assay; type: cell-based
[13] = Lipophilicity, logP of the compound; type: physicochemical; details: octanol/water
[14] = system: NCI-H1650; experiment: Inhibition of YAP1 in human NCI-H1650 cells assessed as disruption in YAP1/TEAD2 interaction at 20 to 50 uM incubated for 48 hrs by proximity ligation assay; type: cell-based

Transcriptional coactivator YAP1 (Homo sapiens), sequence (P46937 whole entry): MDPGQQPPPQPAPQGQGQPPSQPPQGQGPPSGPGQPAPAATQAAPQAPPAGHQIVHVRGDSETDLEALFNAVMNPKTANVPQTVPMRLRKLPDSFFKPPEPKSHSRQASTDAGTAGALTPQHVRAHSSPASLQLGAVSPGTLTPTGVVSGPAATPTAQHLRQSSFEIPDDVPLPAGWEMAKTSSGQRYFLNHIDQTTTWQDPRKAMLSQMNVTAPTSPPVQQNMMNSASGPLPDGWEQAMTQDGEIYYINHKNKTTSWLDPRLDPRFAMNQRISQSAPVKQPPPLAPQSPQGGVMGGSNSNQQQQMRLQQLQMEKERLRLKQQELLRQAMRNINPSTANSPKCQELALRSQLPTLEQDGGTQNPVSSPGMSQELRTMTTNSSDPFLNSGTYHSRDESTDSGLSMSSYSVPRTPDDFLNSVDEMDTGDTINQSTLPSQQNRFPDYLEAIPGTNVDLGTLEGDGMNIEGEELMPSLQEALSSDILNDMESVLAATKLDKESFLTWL

SMILES | inhibition [1] | Activity [2] | Activity [3] | Activity [4] | Activity [5] | Activity [6] | inhibition [7] | Activity [8] | Activity [9] | Activity [10] | inhibition [11] | inhibition [12] | logP [13] | inhibition [14]
COC(=O)[C@H](Cc1ccc(OCc2ccccc2)cc1)NC(=O)CC1CCN(C(=O)Cc2ccccc2)CC1 | 80% | Active | Active | Active | Active | Active | Active | Active | Active | Non-Toxic | 82% |  |  | 
COC(=O)[C@H](Cc1ccc(OCc2ccccc2)cc1)NC(=O)CC1CCN(C(=O)CCc2ccccc2)CC1 | 90% | Active | Active | Active | Active | Active | Active | Active | Active | Non-Toxic | 90% | Active | 4.7 | Active
